Measurements: US4426453A, “Derivatives of iodothyronine compounds and their use in an assay for the free iodothyronine compounds” (Amersham International Limited, priority 1980, dated 1984)
Entries after “also recorded” stand apart in the source; their conditions may differ.

Tests used:
TBPA = settings: blood stream of human beings; cited from earlier work
TBG [1] = molecular target: T1, TBG (Homo sapiens, UniProt P05543); settings: blood stream of human beings; cited from earlier work
T1 sequence (P05543 21-415): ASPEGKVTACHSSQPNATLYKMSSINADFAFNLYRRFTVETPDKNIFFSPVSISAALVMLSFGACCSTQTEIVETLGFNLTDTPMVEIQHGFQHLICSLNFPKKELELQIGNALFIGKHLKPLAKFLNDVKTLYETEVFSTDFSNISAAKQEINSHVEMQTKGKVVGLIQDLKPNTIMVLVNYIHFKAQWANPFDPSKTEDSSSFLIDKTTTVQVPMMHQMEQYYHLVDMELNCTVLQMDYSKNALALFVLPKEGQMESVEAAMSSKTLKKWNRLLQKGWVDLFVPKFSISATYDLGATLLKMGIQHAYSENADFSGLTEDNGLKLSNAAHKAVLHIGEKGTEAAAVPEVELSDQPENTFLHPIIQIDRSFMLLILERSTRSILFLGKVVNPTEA

Albumin = settings: blood stream of human beings; cited from earlier work
[2] = tested on: Antisera (having low T4 cross reactivity); assay: Binding to antisera having low T4 cross reactivity; settings: antisera with low T4 cross reactivity; compared with T3
[3] = Stability in water / assay buffer; format: physicochemical; settings: qualitative
TBG [4] = molecular target: T1, TBG; assay: T4.EDTA binding strength to TBG relative to T4 (displacement of 125I-T4 tracer from TBG:anti-TBG binding reagent); design: 1 ml of resin stripped human serum; from tissue; host or cells: human serum (resin stripped); settings: for binding to TBG (in words): qualitative
Description: (§1) Pre-precipitated antiserum (binding reagent) to either TBG or prealbumin is incubated with a serum source of TBG or prealbumin, so that the T4 binding protein is isolated on the binding reagent. Tracer ^125 I-T4 is added to the resulting complex and is thus purified. The displacement of the tracer ^125 I-T4, by varying concentrations of T4 and T4.EDTA, from the TBG or prealbumin, can then be studied. The results can be used to estimate the differences in binding affinity between T4 and T4.EDTA for the two T4 binding proteins.
15% Donkey anti-sheep in phosphate
2% TBG Antiserum buffer + 0.05% BSA
Equal quantities of the above solutions are mixed and rotated overnight at 4° so that the final concentrations in the binding reagent are 7.5% donkey anti-sheep, and 1% TBG antiserum. Centrifugation at 900 rpm, decantation and resuspension in fresh buffer are carried out twice to wash the reagent.
1 ml of resin stripped human serum and 20 ml of the above binding reagents are mixed for 1 hour at room temperature. Centrifugation, decantation and resuspension in fresh buffer (phosphate+0.05% BSA) are carried out twice.
Typically 10 ml of TBG:anti-TBG binding reagents, 28 ml of phosphate buffer+0.05% BSA, and 2 ml of ^125 I-T4 tracer solution (0.1 μCi high specific activity T4 per ml in phosphate buffer+0.05% BSA) are mixed for 1 hour at room temperature. Centrifugation, decantation and resuspension in fresh buffer (phosphate+0.05% BSA) are carried out twice. Once prepared the tracer T4:TBG:anti-TBG binding reagent is used immediately.
The stock solutions are diluted in phosphate buffer+0.005% BSA. […]
(§2) Thus the percentage bound of the tracer at different T4 and T4.EDTA concentrations, can be determined in the two systems.
(§3) Tracer percentage bound is plotted against T4 and T4.EDTA concentrations, and from these curves an estimate of the non-specific binding can be made. The data can then be re-calculated, using this blank correction, plotted, and the T4 and T4.EDTA concentrations corresponding to a range of tracer percentage bound values can be read off the curve. […]

TBPA (prealbumin) = molecular target: T2, TBPA (prealbumin) (Homo sapiens, UniProt P02766); assay: T4.EDTA binding strength to prealbumin (TBPA) relative to T4 (displacement of 125I-T4 tracer from TBPA:anti-TBPA binding reagent)
T2 construct: from tissue; host or cells: normal serum
Description: as §1
This is prepared as for the anti-TBG binding reagent except that equal volumes of 30% donkey anti-rabbit second antibody and 4% TBPA antiserum solutions were mixed to give final concentrations of 15% donkey anti-rabbit, and 2% anti-TBPA.
600 μl normal serum and 20 ml anti-TBPA binding reagent are mixed for 1 hour at room temperature. […]
as §2, §3

T4 antiserum = assay: Affinity with respect to T4 antiserum; format: binding
[5] = tested on: solid phase T4 antibody (T4-specific antiserum on latex particles); assay: Free-T4 assay using T4.EDTA tracer: standard curve; format: binding; settings: 37° C., one hour
Source text: T4.EDTA was labelled with ^125 I by an exchange reaction using sodium iodide-^125 I and chloramine-T. The specific activity obtained was typically 500 millicuries per milligram, and was used as a working concentration of 0.13 microcuries per […] in a 60 millimolar phosphate buffer, pH 7.4, containing 0.9% sodium chloride, 0.9% bovine serum albumin and 0.1% sodium azide.
A solid phase antibody was used consisting of T4-specific antiserum bound on to micron sized latex particles such that the suspension contained 0.66 milligram of latex particles per milliliter and antibodies from 0.5 microliters of T4-specific antiserum per milligram of latex. The buffer was 10 millimolar phosphate, pH 7.4 containing 0.1% sodium azide.
A set of 6 human serum pools were prepared by standard techniques to contain free-T4 concentrations ranging from zero to approximately 10 nanograms per deciliter. These standards were calibrated with reference to an equilibrium dialysis free T4 assay.
The free T4 assay was set up in polystyrene assay tubes following this protocol:
100 μl serum standard or unknown serum sample
500 μl ^125 I-T4.EDTA tracer solution.
500 μl solid phase T4 antibody suspension.
The assay tubes were vortex mixed, and incubated at 37° C. in a water bath for one hour. The tubes were centrifuged at 1500 g for 20 minutes and the supernatant liquid decanted. The readioactivity of the precipitate was measured.

[6] = % of the affinity constant of T4, 37° C.

## N[C@@H](Cc1cc(I)c(Oc2cc(I)c(O)c(I)c2)c(I)c1)C(=O)O [T4, Thyroxine]
TBPA
  percentage of T4 bound to TBPA: 20-25%
TBG [1]
  percentage of T4 bound to TBG: approximately 70%
Albumin
  percentage of T4 bound to Albumin: 5-10%

## O=C(O)CN(CCN(CC(=O)O)CC(=O)NC(Cc1cc(I)c(Oc2ccc(O)c(I)c2)c(I)c1)C(=O)O)CC(=O)O (stereo not shown) [T3.EDTA, 2-carboxy-6,9-dicarboxymethyl-1 3',5'di-iodo-4'(3"-iodo-4"-hydroxy)phenoxy phenyl 4-oxo-3,6,9-triazaundecan-11-oic acid]
[2]
  binding to antisera relative to T3: equal, or better, binding than T3 itself

## COC(=O)[C@H](Cc1cc(I)c(Oc2cc(I)c(O)c(I)c2)c(I)c1)NC(C)=O [N-Acetyl-thyroxine-methyl ester, N-acetyl-thyroxine-methyl ester, reference compound]
[3]
  stability in water / usable time after dilution into the assay buffer: only gives useful assay results within hours of dilution into the assay buffer
TBG [4]
  binding to TBG (in words): binds appreciably to TBG

## O=C(O)CN(CCN(CC(=O)O)CC(=O)NC(Cc1cc(I)c(Oc2cc(I)c(O)c(I)c2)c(I)c1)C(=O)O)CC(=O)O (stereo not shown) [T4.EDTA, 1-{3',5'-di-iodo-4'(3",5"-di-iodo-4"-Hydroxyphenoxy)phenyl}2-carboxy-6,9-dicarboxymethyl-4-oxo-3,6,9-triazaundecan-11-oic acid]
[3]
  stability in water / usable time after dilution into the assay buffer: stable in water
TBG [4]; [6]
  affinity constant for TBG relative to that of T4: 3.5%
TBG [4]
  binding to TBG (in words): binds only very weakly to TBG; also recorded: shows no significant tendency to bind to TBG
TBPA (prealbumin); [6]
  affinity constant for TBPA relative to that of T4: 2.7%
TBPA (prealbumin); qualitative
  binding to TBPA (in words): binds only very weakly to TBG and TBPA
T4 antiserum; % of that of T4
  affinity constant with respect to T4 antiserum relative to that of T4: 90.4%
T4 antiserum; relative to T4
  binding to T4 antiserum (in words): binds almost as strongly to T4 antiserum as does T4 itself

## O=C(O)CN(CCN(CC(=O)O)CC(=O)NC(Cc1cc(I)c(Oc2cc(I)c(O)c(I)c2)c(I)c1)C(=O)O)CC(=O)O (stereo not shown) [^125 I-T4.EDTA]
[5]; free T4 0 ng/dl
  % radioactivity in solid phase: 61.8%
[5]; free T4 0.45 ng/dl
  % radioactivity in solid phase: 41.2%
[5]; free T4 0.95 ng/dl
  % radioactivity in solid phase: 30.8%
[5]; free T4 1.9 ng/dl
  % radioactivity in solid phase: 21.1%
[5]; free T4 4.9 ng/dl
  % radioactivity in solid phase: 12.4%
[5]; free T4 9.0 ng/dl
  % radioactivity in solid phase: 9.3%
